Data published in PMC12693182, “Synthesis and QSAR Studies of Claramine Derivatives, a New Class of Broad-Spectrum Antimicrobial Agents” (Molecules, 2025).
Converted amounts (≈) assume the structure as drawn.

Experiments:
S. aureus 340 = experiment: MIC, broth microdilution; assay type: cell-based, Staphylococcus aureus; conditions: for MIC: Staphylococcus aureus, 340, 24 h
Protocol: (§1) Antimicrobial activity of the compounds was studied by determination of minimal inhibitory concentrations (MIC) according to the NCCLS guidelines M7-A2 using the microbroth dilution methods. The bacteria strains were grown on trypticase soy agar (Becton Dickinson) at 37 °C for 24 h. Inocula were prepared in TCE (tryptone 0.1%, […], wt/vol) by ajusting the turbidity at 623 nm to obtain 1–3 10^5 CFU/mL.
(§2) Antimicrobial activities of the compounds were determined by using a broth microdilution method performed in sterile 96-well microplates. All compounds were solubilized in water at a concentration of 10 mM and were transferred to each microplate well in order to obtain a two-fold serial dilution in 100 µL of broth and 100 µL of inoculum containing 2–6 10^5 CFU of each bacterium were added to each well. Some wells were reserved for positive controls and inoculum viability.

P. aeruginosa 1051575 = experiment: MIC, broth microdilution; assay type: cell-based, Pseudomonas aeruginosa; conditions: 24 h; for MIC: Pseudomonas aeruginosa, 1051575, 24 h
Protocol: as §1, §2

[1] = tested on: Chinese hamster Ovary cells (CHO-K1); experiment: Cytotoxicity assay (WST-1 / Neutral Red); assay type: cell-based; conditions: 24-h incubation; for IC50: Cricetulus griseus, 24 h
Protocol: The cytotoxic activities of compounds were assessed on Chinese hamster Ovary cells (CHO-K1) provided from ATCC-LGC Standards Sarl (Molsheim, France). Cells were maintained in Mc Coy’s 5A (CHO) medium supplemented with 10% bovine calf serum, 2 mM glutamine, and 100 U mL^−1/10 µg mL^−1 penicillin/streptomycin mixtures. For the cytotoxicity experiments, they were seeded in 96-well plates and incubated at 37 °C in humidified atmosphere containing 5% CO2 overnight, then concentrations of compounds were incorporated in triplicate cultures. After a 24-h incubation period at 37 °C, cells were submitted to three successive washes in phosphate buffer saline (PBS) and cell viability was evaluated by two different vital dyes: • i. A first set of cell cultures was incubated in PBS containing 10% WST-1 for 30 min at 37 °C, 5% CO2. Cell viability was evaluated by the assessment of WST-1 absorbance at 450 nm in a microplate spectrophotometer. • ii. A second set of cell cultures was placed into Neutral Red medium (50 μg mL^−1 Neutral Red in complete medium) and incubated for 3 h at 37 °C, 5% CO2. Then the Neutral Red medium was removed and the distaining solution (50% ethanol, 1% acetic acid, 49% distilled water; 50 µL per well) was added into the wells. The plates were shaken for 15–20 min at room temperature in the dark. Cell viability was evaluated by the assessment of absorbance at 540 nm in a microplate spectrophotometer.
Results were expressed as percentages of cell viability about the control (culture medium-only), which corresponded to 100% cell viability. Dose-response curves were calculated by non-linear regression analysis with TableCurve 2D software (V 5.0.1) (Systat Software Inc., San Jose, CA, USA). The Inhibitory Concentration 50% (IC50) was defined as the concentration of compounds that induced a 50% decrease of viable cells.

S. aureus ATCC 25923 = experiment: MIC, broth microdilution; assay type: cell-based, Staphylococcus aureus; conditions: Staphylococcus aureus, ATCC25923, 24 h, ATCC strain
Protocol: as §1, §2

S. intermedius 1051997 = experiment: MIC, broth microdilution; assay type: cell-based, Staphylococcus intermedius; conditions: Staphylococcus intermedius, 1051997, 24 h, 24 h
Protocol: as §1, §2

E. faecalis ATCC29212 = experiment: MIC, broth microdilution; assay type: cell-based, Enterococccus faecalis; conditions: ATCC strain; for MIC: Enterococcus faecalis, ATCC29212, 24 h, read-out: MIC E. faecalis 29212
Protocol: as §1, §2

E. coli 1956 = experiment: MIC, broth microdilution; assay type: cell-based, Escherichia coli; conditions: Escherichia coli, 1956, 24 h
Protocol: as §1, §2

E. coli ATCC 25922 = experiment: MIC, broth microdilution; assay type: cell-based, Escherichia coli; conditions: ATCC strain; for MIC E. coli 25922: 24 h; for MIC: Escherichia coli, ATCC25922, 24 h
Protocol: as §1, §2

P. aeruginosa ATCC 27853 = experiment: MIC, broth microdilution; assay type: cell-based, Pseudomonas aeruginosa; conditions: ATCC strain; for MIC: Pseudomonas aeruginosa, ATCC27853, 24 h
Protocol: as §1, §2

Work on CC(C)OC(=O)CCC(C)C1CCC2C3CCC4CC(NCCN(CCN)CCN)CCC4(C)C3CC(O)C12C (stereo not drawn) [Claramine A29] yielded an MIC (S. aureus 340) of 14 µg/mL (≈ 24.9 µM), an MIC (P. aeruginosa 1051575) of 56 µg/mL (≈ 99.5 µM) and an IC50 [1] of 141 µg/mL (≈ 250 µM).
CC(C)OC(=O)CCC(C)C1CCC2C3C(O)CC4CC(NCCCNCCCCN)CCC4(C)C3CCC12C (stereo not drawn) [Claramine C18] gave an MIC (S. aureus 340) of 7 µg/mL (≈ 12.5 µM), an MIC (S. aureus ATCC 25923) of 7 µg/mL (≈ 12.5 µM) and an MIC (S. intermedius 1051997) of 4 µg/mL (≈ 7.12 µM). For the same compound, the “MIC E. faecalis 29212” value (E. faecalis ATCC29212; 24 h) was 7 µg/mL (≈ 12.5 µM), the MIC (E. coli 1956) was 14 µg/mL (≈ 24.9 µM) and the “MIC E. coli 25922” value (E. coli ATCC 25922) was 14 µg/mL (≈ 24.9 µM). The “MIC P. aeruginosa 1051575” value (P. aeruginosa 1051575) was 14 µg/mL (≈ 24.9 µM), the “MIC P. aeruginosa 27853” value (P. aeruginosa ATCC 27853; 24 h) was 14 µg/mL (≈ 24.9 µM) and the IC50 [1] was 95 µg/mL (≈ 169 µM).
With CC(C)OC(=O)CCC(C)C1CCC2C3CCC4CC(NCCCNCCCN)CCC4(C)C3CC(O)C12C (stereo not drawn) [Claramine A04] the MIC (S. aureus 340) was 3 µg/mL (≈ 5.48 µM), the MIC (P. aeruginosa 1051575) was 14 µg/mL (≈ 25.6 µM) and the IC50 [1] was 57 µg/mL (≈ 104 µM).
Compound CC(C)OC(=O)CCC(C)C1CCC2C3CCC4CC(NCCCNCCCCN)CCC4(C)C3CCC12C (stereo not drawn) [Claramine E03] has an MIC (S. aureus 340) of 7 µg/mL (≈ 12.8 µM), an MIC (S. aureus ATCC 25923) of 3 µg/mL (≈ 5.5 µM) and an MIC (S. intermedius 1051997) of 2 µg/mL (≈ 3.66 µM). The MIC (E. faecalis ATCC29212) was 7 µg/mL (≈ 12.8 µM), the MIC (E. coli 1956) was 14 µg/mL (≈ 25.6 µM) and the MIC (E. coli ATCC 25922) was 100 µg/mL (≈ 183 µM). For the same compound, the MIC (P. aeruginosa 1051575) was 7 µg/mL (≈ 12.8 µM), the MIC (P. aeruginosa ATCC 27853) was 27 µg/mL (≈ 49.5 µM) and the IC50 [1] was 56 µg/mL (≈ 103 µM).
For CC(C)OC(=O)CCC(C)C1CCC2C3CCC4CC(NCCCNCCCNCCCN)CCC4(C)C3CCC12C (stereo not drawn) [Claramine E02], the MIC (S. aureus 340) was 7 µg/mL (≈ 11.9 µM), the MIC (S. aureus ATCC 25923) was 7 µg/mL (≈ 11.9 µM) and the MIC (S. intermedius 1051997) was 1 µg/mL (≈ 1.7 µM). For the same compound, the MIC (E. faecalis ATCC29212) was 14 µg/mL (≈ 23.8 µM), the MIC (E. coli 1956) was 7 µg/mL (≈ 11.9 µM) and the MIC (E. coli ATCC 25922) was 14 µg/mL (≈ 23.8 µM). The MIC (P. aeruginosa 1051575) was 2 µg/mL (≈ 3.4 µM), the MIC (P. aeruginosa ATCC 27853) was 28 µg/mL (≈ 47.5 µM) and the IC50 [1] was 15 µg/mL (≈ 25.5 µM).
Work on CC(C)OC(=O)CCC(C)C1CCC2C3CCC4CC(NCCCN5CCN(CCCN)CC5)CCC4(C)C3CCC12C (stereo not drawn) [Claramine E05] yielded an MIC (S. aureus 340) of 8 µg/mL (≈ 13.3 µM), an MIC (S. aureus ATCC 25923) of 15 µg/mL (≈ 25 µM) and an MIC (S. intermedius 1051997) of 15 µg/mL (≈ 25 µM). It also gave an MIC (E. faecalis ATCC29212) of 30 µg/mL (≈ 49.9 µM), an MIC (E. coli 1956) of 15 µg/mL (≈ 25 µM) and an MIC (E. coli ATCC 25922) of 15 µg/mL (≈ 25 µM). The MIC (P. aeruginosa 1051575) was 8 µg/mL (≈ 13.3 µM), the MIC (P. aeruginosa ATCC 27853) was 60 µg/mL (≈ 99.8 µM) and the “IC50 CHO” value [1] was 50 µg/mL (≈ 83.2 µM). It also gave an IC50 [1] of 46 µg/mL (≈ 76.5 µM).
CCOC(=O)CCC(C)C1CCC2C3CCC4CC(NCCCNCCCCNCCCN)CCC4(C)C3CC(O)C12C (stereo not drawn) [Claramine A20] was tested, and the IC50 [1] was 25 µg/mL (≈ 41.3 µM).
COC(=O)CCC(C)C1CCC2C3C(O)CC4CC(NCCCNCCCNCCCN)CCC4(C)C3CCC12C (stereo not drawn) [Claramine C02] showed an MIC (S. aureus 340) of 4 µg/mL (≈ 6.93 µM), an MIC (S. aureus ATCC 25923) of 4 µg/mL (≈ 6.93 µM) and an MIC (S. intermedius 1051997) of 2 µg/mL (≈ 3.47 µM). For the same compound, the MIC (E. faecalis ATCC29212) was 15 µg/mL (≈ 26 µM), the “MIC E. coli 25922” value (E. coli ATCC 25922) was 15 µg/mL (≈ 26 µM) and the MIC (P. aeruginosa 1051575) was 7 µg/mL (≈ 12.1 µM). It also gave an MIC (P. aeruginosa ATCC 27853) of 29 µg/mL (≈ 50.3 µM) and an IC50 [1] of 22 µg/mL (≈ 38.1 µM).
In the case of CC(CCC(=O)OC(C(F)(F)F)C(F)(F)F)C1CCC2C3CCC4CC(NCCCNCCCCNCCCN)CCC4(C)C3CC(O)C12C (stereo not drawn) [Claramine A25], the IC50 [1] is reported as 4 µg/mL (≈ 5.5 µM).
For CC[C@H]1OC(=O)[C@H](C)[C@@H](O[C@H]2C[C@@](C)(OC)[C@@H](O)[C@H](C)O2)[C@H](C)[C@@H](O[C@@H]2O[C@H](C)C[C@H](N(C)C)[C@H]2O)[C@](C)(O)C[C@@H](C)C(=O)[C@H](C)[C@@H](O)[C@]1(C)O [Ery, Erythromycine, reference compound], the MIC (S. aureus 340) was 1 µg/mL (≈ 1.36 µM), the MIC (S. aureus ATCC 25923) was 1 µg/mL (≈ 1.36 µM) and the MIC (S. intermedius 1051997) was 1 µg/mL (≈ 1.36 µM). For the same compound, the MIC (E. faecalis ATCC29212) was 1 µg/mL (≈ 1.36 µM).
Work on CCCCOC(=O)CCC(C)C1CCC2C3CCC4CC(NCCCNCCCCNCCCN)CCC4(C)C3CC(O)C12C (stereo not drawn) [Claramine A21] yielded an IC50 [1] of 4 µg/mL (≈ 6.32 µM).
With CC(C)OC(=O)CCC(C)C1CCC2C3C(O)CC4CC(NCCCN5CCN(CCCN)CC5)CCC4(C)C3CCC12C (stereo not drawn) [Claramine C24] the “MIC S. aureus 340” value (S. aureus 340; 24 h) was 8 µg/mL (≈ 13 µM), the MIC (S. aureus ATCC 25923) was 8 µg/mL (≈ 13 µM) and the MIC (S. intermedius 1051997) was 4 µg/mL (≈ 6.48 µM). It also gave an MIC (E. faecalis ATCC29212) of 15 µg/mL (≈ 24.3 µM), an MIC (E. coli 1956) of 30 µg/mL (≈ 48.6 µM) and an MIC (E. coli ATCC 25922) of 15 µg/mL (≈ 24.3 µM). For the same compound, the “MIC P. aeruginosa 1051575” value (P. aeruginosa 1051575) was 30 µg/mL (≈ 48.6 µM) and the MIC (P. aeruginosa ATCC 27853) was 30 µg/mL (≈ 48.6 µM).
With CC(C)OC(=O)CCC(C)C1CCC2C3C(O)CC4CC(NCCCN5CCN(CCCN)CC5)CCC4(C)C3CC(O)C12C (stereo not drawn) [Claramine B16] the MIC (S. aureus 340) was 16 µg/mL (≈ 25.3 µM), the MIC (P. aeruginosa 1051575) was 16 µg/mL (≈ 25.3 µM) and the IC50 [1] was 260 µg/mL (≈ 411 µM).
Compound CC(C)OC(=O)CCC(C)C1CCC2C3C(O)CC4CC(NCCN(CCN)CCN)CCC4(C)C3CC(O)C12C (stereo not drawn) [Claramine B19] has an MIC (S. aureus 340) of 14 µg/mL (≈ 24.2 µM), an MIC (P. aeruginosa 1051575) of 58 µg/mL (≈ 100 µM) and an IC50 [1] of 81 µg/mL (≈ 140 µM).
